Data as given in US12097241B2, “Methods of treating kidney failure, and/or improving or stablizing renal function using modified relaxin polypeptides” (BRISTOL-MYERS SQUIBB COMPANY, priority 2017, dated 2024).

Molecular target: T1, human RXFP1 receptor (Homo sapiens, UniProt Q9HBX9)
T1 construct: expressed in transfected cells
T1 sequence (Q9HBX9 1-757): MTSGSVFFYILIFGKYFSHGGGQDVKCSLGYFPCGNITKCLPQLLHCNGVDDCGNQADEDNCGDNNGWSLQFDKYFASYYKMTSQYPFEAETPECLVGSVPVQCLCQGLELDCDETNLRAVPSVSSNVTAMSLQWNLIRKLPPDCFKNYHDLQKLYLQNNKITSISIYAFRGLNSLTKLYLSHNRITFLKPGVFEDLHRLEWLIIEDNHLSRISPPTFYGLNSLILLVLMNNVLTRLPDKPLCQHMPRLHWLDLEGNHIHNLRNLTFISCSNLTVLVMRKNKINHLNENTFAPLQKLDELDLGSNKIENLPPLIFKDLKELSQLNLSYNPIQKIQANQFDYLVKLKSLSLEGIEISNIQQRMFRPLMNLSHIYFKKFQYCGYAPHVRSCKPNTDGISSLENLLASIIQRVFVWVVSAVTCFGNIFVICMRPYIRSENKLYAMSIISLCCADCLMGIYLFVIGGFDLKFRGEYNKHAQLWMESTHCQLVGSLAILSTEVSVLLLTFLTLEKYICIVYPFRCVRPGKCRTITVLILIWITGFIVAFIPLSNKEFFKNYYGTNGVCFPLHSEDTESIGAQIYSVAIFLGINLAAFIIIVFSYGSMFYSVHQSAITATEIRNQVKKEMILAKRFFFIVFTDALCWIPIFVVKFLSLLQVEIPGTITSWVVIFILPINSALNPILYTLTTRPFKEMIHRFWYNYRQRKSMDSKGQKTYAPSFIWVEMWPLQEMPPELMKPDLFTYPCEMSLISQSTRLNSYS
Experiment: Intracellular cAMP accumulation assay
Format: cell-based

SMILES	EC50
CC[C@H](C)[C@@H]1NC(=O)[C@H](C)NC(=O)[C@H]([C@@H](C)CC)NC(=O)[C@H](CCC(N)=O)NC(=O)[C@H](C)NC(=O)[C@H](CCCNC(=N)N)NC(=O)[C@H](C(C)C)NC(=O)[C@H](CC(C)C)NC(=O)[C@H](CCC(=O)O)NC(=O)[C@H](CCCNC(=N)N)NC(=O)CNC(=O)[C@@H](NC(=O)[C@H](CC(C)C)NC(=O)[C@H](CCCCN)NC(=O)[C@@H](NC(=O)[C@@H](NC(=O)[C@H](CCC(=O)O)NC(=O)[C@H](CCC(=O)O)NC(=O)[C@H](CCSC)NC(=O)[C@H](Cc2c[nH]c3ccccc23)NC(=O)[C@H](CO)NC(=O)[C@H](C)N)C(C)C)[C@@H](C)CC)CSSC[C@@H]2NC(=O)[C@@H](NC(=O)[C@H](CCCCN)NC(=O)[C@H](CC(N)=O)NC(=O)[C@H](C)NC(=O)[C@H](CC(C)C)NC(=O)[C@H](C)NC(=O)[C@H](CO)NC(=O)[C@H](Cc3ccc(O)cc3)NC(=O)[C@H](CC(C)C)NC(=O)[C@@H](N)Cc3ccc(C(C)=NOCCNC(=O)[C@H](CCC(=O)O)NC(=O)CNC(=O)CNC(=O)[C@H](CO)NC(=O)CC[C@H](NC(=O)CCCCCCCCCCCCCC(=O)O)C(=O)O)cc3)CSSC[C@H](NC(=O)CNC(=O)[C@H](C(C)C)NC(=O)[C@H](Cc3c[nH]cn3)NC2=O)C(=O)N[C@@H]([C@@H](C)O)C(=O)N[C@@H](CCCCN)C(=O)N[C@@H](CCCNC(=N)N)C(=O)N[C@@H](CO)C(=O)N[C@@H](CC(C)C)C(=O)N[C@@H](C)C(=O)N[C@@H](CCCNC(=N)N)C(=O)N[C@@H](Cc2ccccc2)C(=O)N[C@H](C(=O)O)CSSC[C@@H](C(=O)NCC(=O)N[C@@H](CCSC)C(=O)N[C@@H](CO)C(=O)N[C@H](C(=O)N[C@@H](Cc2c[nH]c3ccccc23)C(=O)N[C@@H](CO)C(=O)O)[C@@H](C)O)NC1=O [AQ1-EGGS-Glu^γ-C14-COOH]	0.33 nM
CC[C@H](C)[C@@H]1NC(=O)[C@H](C)NC(=O)[C@H]([C@@H](C)CC)NC(=O)[C@H](CCC(N)=O)NC(=O)[C@H](C)NC(=O)[C@H](CCCNC(=N)N)NC(=O)[C@H](C(C)C)NC(=O)[C@H](CC(C)C)NC(=O)[C@H](CCC(=O)O)NC(=O)[C@H](CCCNC(=N)N)NC(=O)CNC(=O)[C@@H](NC(=O)[C@H](CC(C)C)NC(=O)[C@H](CCCCN)NC(=O)[C@@H](NC(=O)[C@@H](NC(=O)[C@H](CCC(=O)O)NC(=O)[C@H](CCC(=O)O)NC(=O)[C@H](CCSC)NC(=O)[C@H](Cc2c[nH]c3ccccc23)NC(=O)[C@H](CO)NC(=O)[C@H](C)N)C(C)C)[C@@H](C)CC)CSSC[C@@H]2NC(=O)[C@@H](NC(=O)[C@H](CCCCN)NC(=O)[C@H](CC(N)=O)NC(=O)[C@H](C)NC(=O)[C@H](CC(C)C)NC(=O)[C@H](C)NC(=O)[C@H](CO)NC(=O)[C@H](Cc3ccc(O)cc3)NC(=O)[C@H](CC(C)C)NC(=O)[C@@H](N)Cc3ccc(/C(C)=N/OCCNC(=O)[C@H](CCCCN)NC(=O)CNC(=O)CNC(=O)CNC(=O)[C@H](CO)NC(=O)CC[C@H](NC(=O)CCCCCCCCCCCCCC(=O)O)C(=O)O)cc3)CSSC[C@H](NC(=O)CNC(=O)[C@H](C(C)C)NC(=O)[C@H](Cc3c[nH]cn3)NC2=O)C(=O)N[C@@H]([C@@H](C)O)C(=O)N[C@@H](CCCCN)C(=O)N[C@@H](CCCNC(=N)N)C(=O)N[C@@H](CO)C(=O)N[C@@H](CC(C)C)C(=O)N[C@@H](C)C(=O)N[C@@H](CCCNC(=N)N)C(=O)N[C@@H](Cc2ccccc2)C(=O)N[C@H](C(=O)O)CSSC[C@@H](C(=O)NCC(=O)N[C@@H](CCSC)C(=O)N[C@@H](CO)C(=O)N[C@H](C(=O)N[C@@H](Cc2c[nH]c3ccccc23)C(=O)N[C@@H](CO)C(=O)O)[C@@H](C)O)NC1=O [AQ1-KGGGS-Glu^γ-C14-COOH]	0.34 nM
CC[C@H](C)[C@@H]1NC(=O)[C@H](C)NC(=O)[C@H]([C@@H](C)CC)NC(=O)[C@H](CCC(N)=O)NC(=O)[C@H](C)NC(=O)[C@H](CCCNC(=N)N)NC(=O)[C@H](C(C)C)NC(=O)[C@H](CC(C)C)NC(=O)[C@H](CCC(=O)O)NC(=O)[C@H](CCCNC(=N)N)NC(=O)CNC(=O)[C@@H](NC(=O)[C@H](CC(C)C)NC(=O)[C@H](CCCCN)NC(=O)[C@@H](NC(=O)[C@@H](NC(=O)[C@H](CCC(=O)O)NC(=O)[C@H](CCC(=O)O)NC(=O)[C@H](CCSC)NC(=O)[C@H](Cc2c[nH]c3ccccc23)NC(=O)[C@H](CO)NC(=O)[C@H](C)N)C(C)C)[C@@H](C)CC)CSSC[C@@H]2NC(=O)[C@@H](NC(=O)[C@H](CCCCN)NC(=O)[C@H](CC(N)=O)NC(=O)[C@H](C)NC(=O)[C@H](CC(C)C)NC(=O)[C@H](C)NC(=O)[C@H](CO)NC(=O)[C@H](Cc3ccc(O)cc3)NC(=O)[C@H](CC(C)C)NC(=O)[C@@H](N)Cc3ccc(/C(C)=N/OCCNC(=O)[C@H](CCCCN)NC(=O)CNC(=O)[C@@H]4CCCN4C(=O)CC[C@H](NC(=O)CCCCCCCCCCCCCC(=O)O)C(=O)O)cc3)CSSC[C@H](NC(=O)CNC(=O)[C@H](C(C)C)NC(=O)[C@H](Cc3c[nH]cn3)NC2=O)C(=O)N[C@@H]([C@@H](C)O)C(=O)N[C@@H](CCCCN)C(=O)N[C@@H](CCCNC(=N)N)C(=O)N[C@@H](CO)C(=O)N[C@@H](CC(C)C)C(=O)N[C@@H](C)C(=O)N[C@@H](CCCNC(=N)N)C(=O)N[C@@H](Cc2ccccc2)C(=O)N[C@H](C(=O)O)CSSC[C@@H](C(=O)NCC(=O)N[C@@H](CCSC)C(=O)N[C@@H](CO)C(=O)N[C@H](C(=O)N[C@@H](Cc2c[nH]c3ccccc23)C(=O)N[C@@H](CO)C(=O)O)[C@@H](C)O)NC1=O [AQ1-KGP-Glu^γ-C14-COOH]	0.27 nM
CC[C@H](C)[C@@H]1NC(=O)[C@H](C)NC(=O)[C@H]([C@@H](C)CC)NC(=O)[C@H](CCC(N)=O)NC(=O)[C@H](C)NC(=O)[C@H](CCCNC(=N)N)NC(=O)[C@H](C(C)C)NC(=O)[C@H](CC(C)C)NC(=O)[C@H](CCC(=O)O)NC(=O)[C@H](CCCNC(=N)N)NC(=O)CNC(=O)[C@@H](NC(=O)[C@H](CC(C)C)NC(=O)[C@H](CCCCN)NC(=O)[C@@H](NC(=O)[C@@H](NC(=O)[C@H](CCC(=O)O)NC(=O)[C@H](CCC(=O)O)NC(=O)[C@H](CCSC)NC(=O)[C@H](Cc2c[nH]c3ccccc23)NC(=O)[C@H](CO)NC(=O)[C@H](C)N)C(C)C)[C@@H](C)CC)CSSC[C@@H]2NC(=O)[C@@H](NC(=O)[C@H](CCCCN)NC(=O)[C@H](CC(N)=O)NC(=O)[C@H](C)NC(=O)[C@H](CC(C)C)NC(=O)[C@H](C)NC(=O)[C@H](CO)NC(=O)[C@H](Cc3ccc(O)cc3)NC(=O)[C@H](CC(C)C)NC(=O)[C@@H](N)Cc3ccc(C(C)=NOCCNC(=O)[C@H](CCCCN)NC(=O)[C@H](CCCCN)NC(=O)CC[C@H](NC(=O)CCCCCCCCCCCCC(=O)O)C(=O)O)cc3)CSSC[C@H](NC(=O)CNC(=O)[C@H](C(C)C)NC(=O)[C@H](Cc3c[nH]cn3)NC2=O)C(=O)N[C@@H]([C@@H](C)O)C(=O)N[C@@H](CCCCN)C(=O)N[C@@H](CCCNC(=N)N)C(=O)N[C@@H](CO)C(=O)N[C@@H](CC(C)C)C(=O)N[C@@H](C)C(=O)N[C@@H](CCCNC(=N)N)C(=O)N[C@@H](Cc2ccccc2)C(=O)N[C@H](C(=O)O)CSSC[C@@H](C(=O)NCC(=O)N[C@@H](CCSC)C(=O)N[C@@H](CO)C(=O)N[C@H](C(=O)N[C@@H](Cc2c[nH]c3ccccc23)C(=O)N[C@@H](CO)C(=O)O)[C@@H](C)O)NC1=O [AQ1-KK-Glu^γ-C13-COOH]	0.1 nM
CC[C@H](C)[C@@H]1NC(=O)[C@H](C)NC(=O)[C@H]([C@@H](C)CC)NC(=O)[C@H](CCC(N)=O)NC(=O)[C@H](C)NC(=O)[C@H](CCCNC(=N)N)NC(=O)[C@H](C(C)C)NC(=O)[C@H](CC(C)C)NC(=O)[C@H](CCC(=O)O)NC(=O)[C@H](CCCNC(=N)N)NC(=O)CNC(=O)[C@@H](NC(=O)[C@H](CC(C)C)NC(=O)[C@H](CCCCN)NC(=O)[C@@H](NC(=O)[C@@H](NC(=O)[C@H](CCC(=O)O)NC(=O)[C@H](CCC(=O)O)NC(=O)[C@H](CCSC)NC(=O)[C@H](Cc2c[nH]c3ccccc23)NC(=O)[C@H](CO)NC(=O)[C@H](C)N)C(C)C)[C@@H](C)CC)CSSC[C@@H]2NC(=O)[C@@H](NC(=O)[C@H](CCCCN)NC(=O)[C@H](CC(N)=O)NC(=O)[C@H](C)NC(=O)[C@H](CC(C)C)NC(=O)[C@H](C)NC(=O)[C@H](CO)NC(=O)[C@H](Cc3ccc(O)cc3)NC(=O)[C@H](CC(C)C)NC(=O)[C@@H](N)Cc3ccc(C(C)=NOCCNC(=O)[C@H](CCCCN)NC(=O)[C@H](CCCCN)NC(=O)[C@H](CO)NC(=O)[C@H](C)NC(=O)CNC(=O)[C@H](CO)NC(=O)[C@H](C)NC(=O)CNC(=O)CC[C@H](NC(=O)CCCCCCCCCCCCC(=O)O)C(=O)O)cc3)CSSC[C@H](NC(=O)CNC(=O)[C@H](C(C)C)NC(=O)[C@H](Cc3c[nH]cn3)NC2=O)C(=O)N[C@@H]([C@@H](C)O)C(=O)N[C@@H](CCCCN)C(=O)N[C@@H](CCCNC(=N)N)C(=O)N[C@@H](CO)C(=O)N[C@@H](CC(C)C)C(=O)N[C@@H](C)C(=O)N[C@@H](CCCNC(=N)N)C(=O)N[C@@H](Cc2ccccc2)C(=O)N[C@H](C(=O)O)CSSC[C@@H](C(=O)NCC(=O)N[C@@H](CCSC)C(=O)N[C@@H](CO)C(=O)N[C@H](C(=O)N[C@@H](Cc2c[nH]c3ccccc23)C(=O)N[C@@H](CO)C(=O)O)[C@@H](C)O)NC1=O [AQ1-KKSAGSAG-Glu^γ-C13-COOH]	0.27 nM
